How the values were obtained:
[1] = molecular target: T1, Amine oxidase [flavin-containing] B (Bos taurus, UniProt P56560); assay: Ratio of Kcat versus Km was determined
T1 sequence (P56560 whole entry): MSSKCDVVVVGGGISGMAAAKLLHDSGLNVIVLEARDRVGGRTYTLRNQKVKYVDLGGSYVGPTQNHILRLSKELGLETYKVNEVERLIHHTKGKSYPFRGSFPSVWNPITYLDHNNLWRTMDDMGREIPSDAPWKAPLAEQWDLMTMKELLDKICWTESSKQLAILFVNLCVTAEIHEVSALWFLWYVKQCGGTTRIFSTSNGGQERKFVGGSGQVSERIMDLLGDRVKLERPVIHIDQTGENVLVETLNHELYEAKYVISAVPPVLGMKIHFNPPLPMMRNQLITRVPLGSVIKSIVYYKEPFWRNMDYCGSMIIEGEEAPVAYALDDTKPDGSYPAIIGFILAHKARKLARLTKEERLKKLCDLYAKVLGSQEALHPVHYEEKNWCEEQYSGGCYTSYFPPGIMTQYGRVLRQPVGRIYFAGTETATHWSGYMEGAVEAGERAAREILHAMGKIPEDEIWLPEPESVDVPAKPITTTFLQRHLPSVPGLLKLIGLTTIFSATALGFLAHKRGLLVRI

physchem = details: octanol/water
Description: Partition coefficient (logP)

[2] = molecular target: T2, Monoamine oxidase B (MAO-B) (Bos taurus, UniProt P56560); assay: in vitro; details: cattle, bovine liver monoamine oxidase B
T2 sequence (P56560 whole entry): T1 sequence (P56560 whole entry)
Description: Km against bovine liver Monoamine oxidase B

[3] = molecular target: T1, Amine oxidase [flavin-containing] B; details: cattle
Description: Kcat against bovine liver Monoamine oxidase B

Row | Ratio [1] | logP (physchem) | SMILES | Km [2] [µM] | k cat [3] [s⁻¹]
1 |  | 1.13 | CN1CC=C(n2nccn2)CC1 |  | 
2 |  | 1.31 | CN1CC=C(n2ccnc2)CC1 |  | 
3 | 850 | 2.85 | CN1CC=C(n2ncc3ccccc32)CC1 |  | 
4 | 410 | 2.17 | CN1CC=C(n2cccc2)CC1 |  | 
5 |  | 1.13 | CN1CC=C(n2ccnn2)CC1 |  | 
6 | 675 | 2.36 | CN1CC=C(n2nnc3ccccc32)CC1 |  | 
7 | 3350 | 3.61 | CN1CC=C(n2ccc3ccccc32)CC1 |  | 
8 | 220 | 2.54 | CN1CC=C(n2cnc3ccccc32)CC1 |  | 

Row | SMILES | Ratio [1] | logP (physchem) | Km [2] [µM] | k cat [3] [s⁻¹]
9 | CN1CC=C(c2ccccn2)CC1 | 60 | 1.24 | 900 | 0.933
10 | CN1CC=C(c2cccnc2)CC1 | 35 | 1.44 | 1900 | 1.12
11 | CN1CC=C(c2ccc[nH]2)CC1 |  | 1.27 |  | 
12 | CN1CC=C(c2cccn2C)CC1 |  | 1.73 |  | 
13 | CN1CC=C(c2ccncc2)CC1 | 6 | 1.24 |  | 

Reference: ChEMBL document CHEMBL1132216, “Studies on the monoamine oxidase-B-catalyzed biotransformation of 4-azaaryl-1-methyl-1,2,3,6-tetrahydropyridine derivatives” (J Med Chem, 1999)
